pIC50: −log10 of the molar value.
Key:
ROCK1 = ROCK1 (Homo sapiens (Human), UniProt Q13464); test: ROCK assay (LABCHIP peptide phosphorylation), ROCK1; format: biochemical; details: 5 μM ATP, 1.5 μM peptide substrate; read-out: ROCK1 IC50
ROCK2 = ROCK2 (Homo sapiens (Human), UniProt O75116); test: ROCK assay (LABCHIP peptide phosphorylation), ROCK2; format: biochemical; details: 5 μM ATP, 1.5 μM peptide substrate
ROCK2, sequence (O75116 whole entry, species assumed): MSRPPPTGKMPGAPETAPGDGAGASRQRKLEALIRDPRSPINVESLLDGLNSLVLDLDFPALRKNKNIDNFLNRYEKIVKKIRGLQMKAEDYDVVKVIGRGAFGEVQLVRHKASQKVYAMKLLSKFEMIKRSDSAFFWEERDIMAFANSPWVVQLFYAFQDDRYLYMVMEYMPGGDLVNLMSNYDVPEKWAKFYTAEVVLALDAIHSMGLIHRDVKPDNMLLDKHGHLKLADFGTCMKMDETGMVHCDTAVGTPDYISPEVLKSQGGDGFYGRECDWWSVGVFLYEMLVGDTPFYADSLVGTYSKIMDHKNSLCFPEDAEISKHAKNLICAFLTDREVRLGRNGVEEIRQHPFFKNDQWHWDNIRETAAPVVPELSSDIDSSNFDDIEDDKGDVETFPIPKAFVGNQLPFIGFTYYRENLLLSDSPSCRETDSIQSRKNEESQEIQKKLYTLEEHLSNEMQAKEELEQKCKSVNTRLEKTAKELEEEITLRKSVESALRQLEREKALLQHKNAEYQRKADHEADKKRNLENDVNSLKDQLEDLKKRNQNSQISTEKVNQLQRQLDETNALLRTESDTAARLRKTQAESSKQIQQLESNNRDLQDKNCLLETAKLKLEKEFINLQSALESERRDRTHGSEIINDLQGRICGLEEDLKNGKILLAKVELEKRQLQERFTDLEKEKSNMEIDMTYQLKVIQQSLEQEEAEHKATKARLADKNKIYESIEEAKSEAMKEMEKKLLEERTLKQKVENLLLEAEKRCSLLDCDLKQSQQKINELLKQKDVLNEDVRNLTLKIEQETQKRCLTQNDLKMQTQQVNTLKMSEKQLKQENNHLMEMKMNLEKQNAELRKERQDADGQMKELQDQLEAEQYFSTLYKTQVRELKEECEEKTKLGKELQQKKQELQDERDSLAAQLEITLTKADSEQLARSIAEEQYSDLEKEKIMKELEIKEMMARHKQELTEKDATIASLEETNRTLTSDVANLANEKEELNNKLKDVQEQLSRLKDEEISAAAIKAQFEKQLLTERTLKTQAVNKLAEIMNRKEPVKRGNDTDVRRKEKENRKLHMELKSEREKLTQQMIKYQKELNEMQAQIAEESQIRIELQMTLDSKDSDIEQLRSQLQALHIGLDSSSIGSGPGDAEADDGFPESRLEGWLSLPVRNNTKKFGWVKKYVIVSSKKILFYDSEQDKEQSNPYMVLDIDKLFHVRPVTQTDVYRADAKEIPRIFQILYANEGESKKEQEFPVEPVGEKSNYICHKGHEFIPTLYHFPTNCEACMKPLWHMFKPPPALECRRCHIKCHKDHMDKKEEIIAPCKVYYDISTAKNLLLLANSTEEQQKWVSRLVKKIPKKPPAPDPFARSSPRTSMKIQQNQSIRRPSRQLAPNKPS

ROCK1, sequence (Q13464 whole entry, species assumed): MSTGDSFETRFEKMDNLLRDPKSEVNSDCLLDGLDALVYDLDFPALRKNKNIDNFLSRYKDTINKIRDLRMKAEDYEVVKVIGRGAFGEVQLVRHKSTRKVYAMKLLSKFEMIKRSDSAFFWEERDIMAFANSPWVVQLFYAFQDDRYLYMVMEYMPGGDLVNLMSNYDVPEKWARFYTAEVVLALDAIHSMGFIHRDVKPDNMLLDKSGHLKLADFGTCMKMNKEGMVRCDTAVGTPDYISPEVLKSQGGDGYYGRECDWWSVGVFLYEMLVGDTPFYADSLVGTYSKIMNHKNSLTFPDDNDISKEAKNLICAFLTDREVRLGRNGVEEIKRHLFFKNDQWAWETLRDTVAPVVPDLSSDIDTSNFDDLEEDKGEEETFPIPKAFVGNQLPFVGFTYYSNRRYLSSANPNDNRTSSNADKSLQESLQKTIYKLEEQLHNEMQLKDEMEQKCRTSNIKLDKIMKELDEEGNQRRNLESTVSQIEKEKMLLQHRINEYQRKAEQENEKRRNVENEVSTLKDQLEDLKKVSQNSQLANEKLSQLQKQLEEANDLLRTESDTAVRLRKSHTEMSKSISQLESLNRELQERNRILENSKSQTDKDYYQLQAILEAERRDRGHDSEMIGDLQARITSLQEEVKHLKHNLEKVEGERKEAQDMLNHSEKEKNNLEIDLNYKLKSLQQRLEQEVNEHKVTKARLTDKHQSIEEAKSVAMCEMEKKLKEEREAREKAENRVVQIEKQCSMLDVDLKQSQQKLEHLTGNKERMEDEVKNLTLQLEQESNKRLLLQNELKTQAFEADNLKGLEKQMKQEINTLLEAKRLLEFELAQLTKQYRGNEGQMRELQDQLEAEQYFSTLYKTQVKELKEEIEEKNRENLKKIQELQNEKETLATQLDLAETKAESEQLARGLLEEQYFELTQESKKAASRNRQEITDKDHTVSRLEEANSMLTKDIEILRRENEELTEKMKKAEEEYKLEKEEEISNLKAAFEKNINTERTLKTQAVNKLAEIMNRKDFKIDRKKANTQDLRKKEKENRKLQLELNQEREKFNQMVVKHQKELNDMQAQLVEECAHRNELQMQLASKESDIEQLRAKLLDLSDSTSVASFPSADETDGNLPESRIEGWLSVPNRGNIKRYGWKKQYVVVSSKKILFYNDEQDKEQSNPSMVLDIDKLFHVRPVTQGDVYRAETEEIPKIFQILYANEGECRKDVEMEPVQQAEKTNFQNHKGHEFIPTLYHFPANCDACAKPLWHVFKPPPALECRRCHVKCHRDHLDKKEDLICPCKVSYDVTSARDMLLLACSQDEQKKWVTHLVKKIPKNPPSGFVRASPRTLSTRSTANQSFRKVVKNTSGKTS

| Structure (SMILES) | pIC50 (ROCK1) | pIC50 (ROCK2) |
| --- | --- | --- |
| O=C(Nc1ccc(-c2n[nH]c(=O)c3ccccc23)cc1)c1nn(CC(O)COCc2ccccc2)c2ccccc12 (stereo not shown) [Example 147, 1-[3-(benzyloxy)-2-hydroxypropyl]-N-[4-(4-oxo-3,4-dihydrophthalazin-1-yl)phenyl]-1H-indazole-3-carboxamide] | 7.00 to 10.00 | 7.00 to 10.00 |
| O=C(Nc1ccc(-c2n[nH]c(=O)c3ccccc23)cc1)c1nn(CC2CCCO2)c2ccccc12 (stereo not shown) [Example 148, N-[4-(4-oxo-3,4-dihydrophthalazin-1-yl)phenyl]-1-(oxolan-2-ylmethyl)-1H-indazole-3-carboxamide] | 7.00 to 10.00 | 7.00 to 10.00 |
| O=C(Nc1ccc(-c2n[nH]c(=O)c3ccccc23)cc1)c1nn(CC2CCOCC2)c2ccccc12 [Example 150, 1-(oxan-4-ylmethyl)-N-[4-(4-oxo-3,4-dihydrophthalazin-1-yl)phenyl]-1H-indazole-3-carboxamide] | 7.00 to 10.00 | 7.00 to 10.00 |
| COCCn1nc(C(=O)Nc2ccc(-c3n[nH]c(=O)c4ccccc34)cc2)c2ccccc21 [Example 151, 1-(2-methoxyethyl)-N-[4-(4-oxo-3,4-dihydrophthalazin-1-yl)phenyl]-1H-indazole-3-carboxamide] | 7.00 to 10.00 | 7.00 to 10.00 |
| CC(O)Cn1nc(C(=O)Nc2ccc(-c3n[nH]c(=O)c4ccccc34)cc2)c2ccccc21 (stereo not shown) [Example 153, 1-(2-hydroxypropyl)-N-[4-(4-oxo-3,4-dihydrophthalazin-1-yl)phenyl]-1H-indazole-3-carboxamide] | 7.00 to 10.00 | 7.00 to 10.00 |
| O=C(Nc1ccc(-c2n[nH]c(=O)c3ccccc23)cc1)c1nn(CCO)c2ccccc12 [Example 155, 1-(2-hydroxyethyl)-N-[4-(4-oxo-3,4-dihydrophthalazin-1-yl)phenyl]-1H-indazole-3-carboxamide] | 7.00 to 10.00 | 7.00 to 10.00 |
| CC(C)(O)Cn1nc(C(=O)Nc2ccc(-c3n[nH]c(=O)c4ccccc34)cc2)c2ccc(F)cc21 [Example 158, 6-fluoro-1-(2-hydroxy-2-methylpropyl)-N-[4-(4-oxo-3,4-dihydrophthalazin-1-yl)phenyl]-1H-indazole-3-carboxamide] | 7.00 to 10.00 | 7.00 to 10.00 |
| O=C(Nc1ccc(-c2n[nH]c(=O)c3ccccc23)cc1)c1nn(CC2COC2)c2cc(F)ccc12 [Example 159, 6-fluoro-1-(oxetan-3-ylmethyl)-N-[4-(4-oxo-3,4-dihydrophthalazin-1-yl)phenyl]-1H-indazole-3-carboxamide] | 7.00 to 10.00 | 7.00 to 10.00 |
| O=C(Nc1ccc(-c2n[nH]c(=O)c3ccccc23)cc1)c1nn(Cc2ccccn2)c2ccccc12 [Example 160, N-[4-(4-oxo-3,4-dihydrophthalazin-1-yl)phenyl]-1-(pyridin-2-ylmethyl)-1H-indazole-3-carboxamide] | 7.00 to 10.00 | 7.00 to 10.00 |
| O=C(Nc1ccc(-c2n[nH]c(=O)c3ccccc23)cc1)c1nn(Cc2cccnc2)c2ccccc12 [Example 161, N-[4-(4-oxo-3,4-dihydrophthalazin-1-yl)phenyl]-1-(pyridin-3-ylmethyl)-1H-indazole-3-carboxamide] | 7.00 to 10.00 | 7.00 to 10.00 |
| COCCCn1nc(C(=O)Nc2ccc(-c3n[nH]c(=O)c4ccccc34)cc2)c2ccccc21 [Example 163, 1-(3-methoxypropyl)-N-[4-(4-oxo-3,4-dihydrophthalazin-1-yl)phenyl]-1H-indazole-3-carboxamide] | 7.00 to 10.00 | 7.00 to 10.00 |
| O=C(Nc1ccc(-c2n[nH]c(=O)c3ccccc23)cc1)c1nn(CCCO)c2ccccc12 [Example 164, 1-(3-hydroxypropyl)-N-[4-(4-oxo-3,4-dihydrophthalazin-1-yl)phenyl]-1H-indazole-3-carboxamide] | 7.00 to 10.00 | 7.00 to 10.00 |
| O=C(Nc1ccc(-c2n[nH]c(=O)c3ccccc23)cc1)c1nn(Cc2ccncc2)c2ccccc12 [Example 165, N-[4-(4-oxo-3,4-dihydrophthalazin-1-yl)phenyl]-1-(pyridin-4-ylmethyl)-1H-indazole-3-carboxamide] | 7.00 to 10.00 | 7.00 to 10.00 |
| O=C(Nc1ccc(-c2n[nH]c(=O)c3ccccc23)cc1)c1c[nH]c2ccncc12 [Example 166, N-[4-(4-oxo-3,4-dihydrophthalazin-1-yl)phenyl]-1H-pyrrolo[3,2-c]pyridine-3-carboxamide] | 6.00 to 7.00 | 7.00 to 10.00 |
| CC(C)(O)Cn1nc(C(=O)Nc2ccc(-c3n[nH]c(=O)c4ccccc34)cc2)c2cc(F)ccc21 [Example 167, 5-fluoro-1-(2-hydroxy-2-methylpropyl)-N-[4-(4-oxo-3,4-dihydrophthalazin-1-yl)phenyl]-1H-indazole-3-carboxamide] | 7.00 to 10.00 | 7.00 to 10.00 |
| O=C(Nc1ccc(-c2n[nH]c(=O)c3ccccc23)cc1)c1nn(CC2CCCCO2)c2ccccc12 (stereo not shown) [Example 168, 1-(oxan-2-ylmethyl)-N-[4-(4-oxo-3,4-dihydrophthalazin-1-yl)phenyl]-1H-indazole-3-carboxamide] | 7.00 to 10.00 | 7.00 to 10.00 |
| CC(C)(O)Cn1cc(C(=O)Nc2ccc(-c3n[nH]c(=O)c4ccccc34)cc2)c2cccnc21 [Example 169, 1-(2-hydroxy-2-methylpropyl)-N-[4-(4-oxo-3,4-dihydrophthalazin-1-yl)phenyl]-1H-pyrrolo[2,3-b]pyridine-3-carboxamide] | 7.00 to 10.00 | 7.00 to 10.00 |
| CC(C)(O)COc1ccc2c(C(=O)Nc3ccc(-c4n[nH]c(=O)c5ccccc45)cc3)cnn2c1 [Example 172, 6-(2-hydroxy-2-methylpropoxy)-N-[4-(4-oxo-3,4-dihydrophthalazin-1-yl)phenyl]pyrazolo[1,5-a]pyridine-3-carboxamide] | 7.00 to 10.00 | 7.00 to 10.00 |
| O=C(Nc1ccc(-c2n[nH]c(=O)c3ccccc23)cc1)c1nn(CC2CCOC2)c2ccc(F)cc12 (stereo not shown) [Example 173, 5-fluoro-N-[4-(4-oxo-3,4-dihydrophthalazin-1-yl)phenyl]-1-(oxolan-3-ylmethyl)-1H-indazole-3-carboxamide] | 7.00 to 10.00 | 7.00 to 10.00 |
| O=C(Nc1ccc(-c2n[nH]c(=O)c3ccccc23)cc1)c1nn(CC2CCOC2)c2cc(F)ccc12 (stereo not shown) [Example 174, 6-fluoro-N-[4-(4-oxo-3,4-dihydrophthalazin-1-yl)phenyl]-1-(oxolan-3-ylmethyl)-1H-indazole-3-carboxamide] | 7.00 to 10.00 | 7.00 to 10.00 |
| COCCOc1ccc2c(C(=O)Nc3ccc(-c4n[nH]c(=O)c5ccccc45)cc3)cnn2c1 [Example 175, 6-(2-methoxyethoxy)-N-[4-(4-oxo-3,4-dihydrophthalazin-1-yl)phenyl]pyrazolo[1,5-a]pyridine-3-carboxamide] | 7.00 to 10.00 | 7.00 to 10.00 |
| O=C(Nc1ccc(-c2n[nH]c(=O)c3ccccc23)cc1)c1cnn2cc(OCCN3CCCC3)ccc12 [Example 176, N-[4-(4-oxo-3,4-dihydrophthalazin-1-yl)phenyl]-6-[2-(pyrrolidin-1-yl)ethoxy]pyrazolo[1,5-a]pyridine-3-carboxamide] | 7.00 to 10.00 | 7.00 to 10.00 |
| CN(C)CCOc1ccc2c(C(=O)Nc3ccc(-c4n[nH]c(=O)c5ccccc45)cc3)cnn2c1 [Example 177, 6-[2-(dimethylamino)ethoxy]-N-[4-(4-oxo-3,4-dihydrophthalazin-1-yl)phenyl]pyrazolo[1,5-a]pyridine-3-carboxamide] | 7.00 to 10.00 | 7.00 to 10.00 |

Reference: patent US9926282B2, “Phthalazinones and isoquinolinones as rock inhibitors” (BRISTOL-MYERS SQUIBB COMPANY, priority 2013, dated 2018)
